Assay results from the NIST ThermoML archive (doi:10.1021/acs.jced.6b00655).
Where “and” joins values, the source holds several entries; their conditions need not be identical. Equal values may be shown once. ± gives the expanded uncertainty stated by the source.

Columns and labels:
[1] = 283.15 K; 100 kPa; Liquid; Vibrating tube method
[2] = xn = mol fraction of the nth substance listed; settings: 283.15 K, 100 kPa, Liquid, Vibrating tube method

CCCC[N+]1(C)CCCC1.O=S(=O)([N-]S(=O)(=O)C(F)(F)F)C(F)(F)F
mass density [1]: 1410.45 ± 10 kg/m3 and 1407.6 ± 10 kg/m3

CCCC[N+]1(C)CCCC1.O=S(=O)([N-]S(=O)(=O)C(F)(F)F)C(F)(F)F + CCc1ccccc1
mass density ([2]; x2 = 0): 1410.45 ± 10 kg/m3
mass density ([2]; x2 = 0.312): 1332.47 ± 10 kg/m3
mass density ([2]; x2 = 0.417): 1296.15 ± 11 kg/m3
mass density ([2]; x2 = 0.489): 1268.45 ± 11 kg/m3
mass density ([2]; x2 = 0.636): 1201.58 ± 11 kg/m3

CCCC[N+]1(C)CCCC1.O=S(=O)([N-]S(=O)(=O)C(F)(F)F)C(F)(F)F + Cc1ccc(C)cc1
mass density ([2]; x2 = 0): 1407.6 ± 10 kg/m3
mass density ([2]; x2 = 0.207): 1361.17 ± 10 kg/m3
mass density ([2]; x2 = 0.357): 1315.5 ± 11 kg/m3
mass density ([2]; x2 = 0.507): 1254.4 ± 11 kg/m3
mass density ([2]; x2 = 0.617): 1193.73 ± 11 kg/m3

CCCC[N+]1(C)CCCC1.O=S(=O)([N-]S(=O)(=O)C(F)(F)F)C(F)(F)F + Cc1cccc(C)c1
mass density ([2]; x2 = 0): 1410.45 ± 10 kg/m3
mass density ([2]; x2 = 0.206): 1361.63 ± 10 kg/m3
mass density ([2]; x2 = 0.372): 1318.08 ± 11 kg/m3
mass density ([2]; x2 = 0.491): 1259.92 ± 11 kg/m3
mass density ([2]; x2 = 0.616): 1191.7 ± 11 kg/m3

CCCC[N+]1(C)CCCC1.O=S(=O)([N-]S(=O)(=O)C(F)(F)F)C(F)(F)F + Cc1ccccc1
mass density ([2]; x2 = 0): 1407.6 ± 10 kg/m3
mass density ([2]; x2 = 0.509): 1276.06 ± 11 kg/m3
mass density ([2]; x2 = 0.574): 1250.95 ± 11 kg/m3
mass density ([2]; x2 = 0.611): 1228.59 ± 12 kg/m3
mass density ([2]; x2 = 0.73): 1160.93 ± 12 kg/m3

CCCC[N+]1(C)CCCC1.O=S(=O)([N-]S(=O)(=O)C(F)(F)F)C(F)(F)F + Cc1ccccc1C
mass density ([2]; x2 = 0): 1407.6 ± 10 kg/m3
mass density ([2]; x2 = 0.21): 1360.77 ± 10 kg/m3
mass density ([2]; x2 = 0.409): 1303.44 ± 11 kg/m3
mass density ([2]; x2 = 0.622): 1224.4 ± 11 kg/m3
mass density ([2]; x2 = 0.673): 1207.6 ± 11 kg/m3

CCCC[N+]1(C)CCCC1.O=S(=O)([N-]S(=O)(=O)C(F)(F)F)C(F)(F)F + c1ccccc1
mass density ([2]; x2 = 0): 1410.45 ± 10 kg/m3
mass density ([2]; x2 = 0.106): 1394.11 ± 10 kg/m3
mass density ([2]; x2 = 0.309): 1355.03 ± 10 kg/m3
mass density ([2]; x2 = 0.505): 1296.91 ± 11 kg/m3
mass density ([2]; x2 = 0.714): 1203.57 ± 11 kg/m3
mass density ([2]; x2 = 0.813): 1133.23 ± 12 kg/m3

CCCC[N+]1(C)CCCC1.N#CN=C=[N-] [1-butyl-1-methylpyrrolidinium dicyanamide]
mass density [1]: 1021.84 ± 10 kg/m3 and 1022.97 ± 10 kg/m3 and 1022.94 ± 10 kg/m3

CCCC[N+]1(C)CCCC1.N#CN=C=[N-] [1-butyl-1-methylpyrrolidinium dicyanamide] + CCc1ccccc1
mass density ([2]; x2 = 0): 1022.97 ± 10 kg/m3
mass density ([2]; x2 = 0.044): 1020.28 ± 10 kg/m3
mass density ([2]; x2 = 0.11): 1016.49 ± 10 kg/m3
mass density ([2]; x2 = 0.2): 1010.5 ± 10 kg/m3
mass density ([2]; x2 = 0.307): 1002.43 ± 10 kg/m3
mass density ([2]; x2 = 0.359): 997.98 ± 10 kg/m3
mass density ([2]; x2 = 0.397): 994.71 ± 10 kg/m3

CCCC[N+]1(C)CCCC1.N#CN=C=[N-] [1-butyl-1-methylpyrrolidinium dicyanamide] + Cc1ccc(C)cc1
mass density ([2]; x2 = 0): 1022.94 ± 10 kg/m3
mass density ([2]; x2 = 0.055): 1019.77 ± 10 kg/m3
mass density ([2]; x2 = 0.109): 1015.55 ± 10 kg/m3
mass density ([2]; x2 = 0.21): 1009.54 ± 10 kg/m3
mass density ([2]; x2 = 0.27): 1005.7 ± 10 kg/m3
mass density ([2]; x2 = 0.335): 1000.17 ± 10 kg/m3
mass density ([2]; x2 = 0.389): 993.97 ± 10 kg/m3

CCCC[N+]1(C)CCCC1.N#CN=C=[N-] [1-butyl-1-methylpyrrolidinium dicyanamide] + Cc1cccc(C)c1
mass density ([2]; x2 = 0): 1022.94 ± 10 kg/m3
mass density ([2]; x2 = 0.057): 1019.68 ± 10 kg/m3
mass density ([2]; x2 = 0.112): 1016.11 ± 10 kg/m3
mass density ([2]; x2 = 0.202): 1009.68 ± 10 kg/m3
mass density ([2]; x2 = 0.26): 1006.3 ± 10 kg/m3
mass density ([2]; x2 = 0.318): 1000.45 ± 10 kg/m3
mass density ([2]; x2 = 0.388): 995.25 ± 10 kg/m3

CCCC[N+]1(C)CCCC1.N#CN=C=[N-] [1-butyl-1-methylpyrrolidinium dicyanamide] + Cc1ccccc1
mass density ([2]; x2 = 0): 1022.97 ± 10 kg/m3
mass density ([2]; x2 = 0.054): 1020.33 ± 10 kg/m3
mass density ([2]; x2 = 0.103): 1018.02 ± 10 kg/m3
mass density ([2]; x2 = 0.205): 1012.43 ± 10 kg/m3
mass density ([2]; x2 = 0.304): 1006.23 ± 10 kg/m3
mass density ([2]; x2 = 0.387): 1000.63 ± 10 kg/m3
mass density ([2]; x2 = 0.454): 993.84 ± 10 kg/m3
mass density ([2]; x2 = 0.528): 986.94 ± 10 kg/m3

CCCC[N+]1(C)CCCC1.N#CN=C=[N-] [1-butyl-1-methylpyrrolidinium dicyanamide] + Cc1ccccc1C
mass density ([2]; x2 = 0): 1022.97 ± 10 kg/m3
mass density ([2]; x2 = 0.001): 1022.98 ± 10 kg/m3
mass density ([2]; x2 = 0.102): 1018.02 ± 10 kg/m3
mass density ([2]; x2 = 0.202): 1011.22 ± 10 kg/m3
mass density ([2]; x2 = 0.305): 1005.51 ± 10 kg/m3
mass density ([2]; x2 = 0.385): 999.83 ± 10 kg/m3
mass density ([2]; x2 = 0.433): 997.35 ± 10 kg/m3

CCCC[N+]1(C)CCCC1.N#CN=C=[N-] [1-butyl-1-methylpyrrolidinium dicyanamide] + c1ccccc1
mass density ([2]; x2 = 0): 1021.84 ± 10 kg/m3
mass density ([2]; x2 = 0.051): 1020.09 ± 10 kg/m3
mass density ([2]; x2 = 0.099): 1018.22 ± 10 kg/m3
mass density ([2]; x2 = 0.199): 1014.33 ± 10 kg/m3
mass density ([2]; x2 = 0.293): 1009.95 ± 10 kg/m3
mass density ([2]; x2 = 0.401): 1004.03 ± 10 kg/m3
mass density ([2]; x2 = 0.505): 996.7 ± 10 kg/m3
mass density ([2]; x2 = 0.61): 987.41 ± 10 kg/m3
mass density ([2]; x2 = 0.637): 984.55 ± 10 kg/m3
mass density ([2]; x2 = 0.665): 981.11 ± 10 kg/m3
mass density ([2]; x2 = 0.69): 978.4 ± 10 kg/m3
mass density ([2]; x2 = 0.718): 973.87 ± 10 kg/m3

CCCC[N+]1(C)CCCC1.O=S(=O)([O-])C(F)(F)F [1-butyl-1-methylpyrrolidinium trifluoromethanesulfonate]
mass density [1]: 1263.28 ± 10 kg/m3 and 1263.17 ± 10 kg/m3

CCCC[N+]1(C)CCCC1.O=S(=O)([O-])C(F)(F)F [1-butyl-1-methylpyrrolidinium trifluoromethanesulfonate] + CCc1ccccc1
mass density ([2]; x2 = 0): 1263.17 ± 10 kg/m3
mass density ([2]; x2 = 0.044): 1254.99 ± 10 kg/m3
mass density ([2]; x2 = 0.107): 1240.68 ± 10 kg/m3
mass density ([2]; x2 = 0.209): 1220.18 ± 10 kg/m3
mass density ([2]; x2 = 0.309): 1193.98 ± 10 kg/m3
mass density ([2]; x2 = 0.391): 1174.45 ± 10 kg/m3
mass density ([2]; x2 = 0.42): 1164.28 ± 11 kg/m3

CCCC[N+]1(C)CCCC1.O=S(=O)([O-])C(F)(F)F [1-butyl-1-methylpyrrolidinium trifluoromethanesulfonate] + Cc1ccc(C)cc1
mass density ([2]; x2 = 0): 1263.17 ± 10 kg/m3
mass density ([2]; x2 = 0.053): 1249.16 ± 10 kg/m3
mass density ([2]; x2 = 0.102): 1242.37 ± 10 kg/m3
mass density ([2]; x2 = 0.203): 1216.86 ± 10 kg/m3
mass density ([2]; x2 = 0.306): 1195.95 ± 10 kg/m3
mass density ([2]; x2 = 0.361): 1180.48 ± 10 kg/m3
mass density ([2]; x2 = 0.415): 1164.5 ± 10 kg/m3

CCCC[N+]1(C)CCCC1.O=S(=O)([O-])C(F)(F)F [1-butyl-1-methylpyrrolidinium trifluoromethanesulfonate] + Cc1cccc(C)c1
mass density ([2]; x2 = 0): 1263.17 ± 10 kg/m3
mass density ([2]; x2 = 0.054): 1253.29 ± 10 kg/m3
mass density ([2]; x2 = 0.11): 1241.72 ± 10 kg/m3
mass density ([2]; x2 = 0.202): 1221.84 ± 10 kg/m3
mass density ([2]; x2 = 0.308): 1195.52 ± 10 kg/m3
mass density ([2]; x2 = 0.352): 1184.04 ± 10 kg/m3
mass density ([2]; x2 = 0.402): 1170.32 ± 10 kg/m3
mass density ([2]; x2 = 0.418): 1165.83 ± 10 kg/m3

CCCC[N+]1(C)CCCC1.O=S(=O)([O-])C(F)(F)F [1-butyl-1-methylpyrrolidinium trifluoromethanesulfonate] + Cc1ccccc1
mass density ([2]; x2 = 0): 1263.17 ± 10 kg/m3
mass density ([2]; x2 = 0.052): 1255.13 ± 10 kg/m3
mass density ([2]; x2 = 0.102): 1246.47 ± 10 kg/m3
mass density ([2]; x2 = 0.221): 1223.94 ± 10 kg/m3
mass density ([2]; x2 = 0.313): 1203.6 ± 10 kg/m3
mass density ([2]; x2 = 0.4): 1181.98 ± 10 kg/m3
mass density ([2]; x2 = 0.516): 1147.19 ± 10 kg/m3
mass density ([2]; x2 = 0.579): 1124.97 ± 11 kg/m3

CCCC[N+]1(C)CCCC1.O=S(=O)([O-])C(F)(F)F [1-butyl-1-methylpyrrolidinium trifluoromethanesulfonate] + Cc1ccccc1C
mass density ([2]; x2 = 0): 1263.17 ± 10 kg/m3
mass density ([2]; x2 = 0.054): 1252.3 ± 10 kg/m3
mass density ([2]; x2 = 0.107): 1243.62 ± 10 kg/m3
mass density ([2]; x2 = 0.19): 1225.81 ± 10 kg/m3
mass density ([2]; x2 = 0.308): 1197.9 ± 10 kg/m3
mass density ([2]; x2 = 0.399): 1174.56 ± 10 kg/m3
mass density ([2]; x2 = 0.451): 1160.97 ± 10 kg/m3
